Our source for the GI50 values is patent US10647680B2, “Urea compound, preparation method therefor and medical use thereof” (Ancureall Pharmaceutical (Shanghai) Co., Ltd., priority 2016, dated 2020).

In test [1] the test system is MV4-11 (FLT3 ITD+/+ mutant type). Briefly: In vitro growth inhibition (GI50), MV4-11. In kind it is cell-based, human. As to conditions: Homo sapiens, MV4-11; Cell lines of leukemia; read-out: GI 50 MV4-11 FLT3 (ITD +/+).
Test [2] deals with MOLM-13 (FLT3 ITD+/− mutant type). As to the kind of experiment: In vitro growth inhibition (GI50), MOLM-13. In kind it is cell-based, human. The conditions noted are these: Homo sapiens, MOLM-13; Cell lines of leukemia; read-out: GI 50 MOLM-13 FLT3 (ITD+/−).
For another test, the system named is RS4; 11 (FLT3 wild type). Briefly: In vitro growth inhibition (GI50), RS4; 11. In kind it is cell-based, human. The conditions noted are these: Homo sapiens, RS4-11; Cell lines of leukemia; read-out: GI 50 RS4: 11 FLT3 (WT).
For test [3], the system named is K562 (FLT3 negative expression, positive expression of BCR-ABL fusion protein). As to the kind of experiment: In vitro growth inhibition (GI50), K562. The conditions noted are these: Homo sapiens, Cell lines of leukemia, read-out: GI 50 K562 BCR-ABL. The format is cell-based.
Test [4] concerns RAMOS (positive expression of Brutons tyrosine protein kinase). As to the kind of experiment: In vitro growth inhibition (GI50), RAMOS. As to conditions: Homo sapiens, Cell lines of leukemia, read-out: GI 50 Ramos BTK. The format is cell-based.
A further test relates to U937 (FLT3 wild-type). As to the kind of experiment: In vitro growth inhibition (GI50), U937. In kind it is cell-based. The conditions noted are these: Homo sapiens, U-937; Cell lines of leukemia; read-out: GI 50 U937 FLT 3(WT).
In test [5] the test system is Kasumi-1 (c-Kit N822K mutant type). As to the kind of experiment: In vitro growth inhibition (GI50), Kasumi-1. The format is cell-based. As to conditions: Homo sapiens, Cell lines of leukemia, read-out: GI 50 Kasumi-1 Kit (N822K). In a few lines:
(§1)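 Cells in RPMI1640 with 10% FBS, seeded at 5–10×10^4 cells/mL, exposed next day to compound at 5,000 nM down to 0.01 nM (2- or 10-fold dilutions, ≤1% solvent) for 3–5 days at 37 °C. CCK8 absorbance at 450 nm, growth rate relative to pre-treatment and solvent controls, GI50 from concentration–growth curve.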

Test [6] deals with KG-1 (expressing FGFR1OP2-FGFR1 fusion protein). As to the kind of experiment: In vitro growth inhibition (GI50), KG-1. As to conditions: Homo sapiens; Cell lines of leukemia; read-out: GI 50 KG-1 FGFR1OP 2-FGFR1. In kind it is cell-based.
Another test relates to HL-60 (FLT3 wild type). As to the kind of experiment: In vitro growth inhibition (GI50), HL-60. The format is cell-based. The conditions noted are these: Homo sapiens, Cell lines of leukemia, read-out: GI 50 HL60 FLT3 (WT). Summed up:
as §1

Test [7] has as its system OCI-AML3 (NPMc+ mutant type). Briefly: In vitro growth inhibition (GI50), OCI-AML3. In kind it is cell-based. The conditions noted are these: Homo sapiens, OCI-AML-3; Cell lines of leukemia; read-out: GI 50 OCI- AML3 NPMc+.

With `CC(C)(C)c1cc(NC(=O)Nc2ccc(-n3cnc4cc(F)ccc43)cc2)[nH]n1` [Compound 69, 1-(5-tert-butyl-2H-pyrazol-3-yl)-3-[4-(5-fluoro-benzimidazol-1-yl)-phenyl]-urea], the GI50 in test [1] was 0.0001 to 0.001 µM; in test [2], 0.0001 to 0.001 µM; with RS4; 11 (FLT3 wild type), 0.1 to 1 µM; in test [3], 0.1 to 1 µM; in test [4], more than 1 µM; with U937 (FLT3 wild-type), more than 1 µM. In addition, the GI50 (in test [5]; in test [6]; in the test with HL-60 (FLT3 wild type); in [7]) was more than 1 µM in each case.
As for `CC(C)(C)c1cc(NC(=O)Nc2ccc(-n3cnc4cc(C(F)(F)F)ccc43)cc2)[nH]n1` [Compound 70, 1-(5-tert-butyl-2H-pyrazol-3-yl)-3-[4-(5-trifluoromethyl-benzimidazol-1-yl)-phenyl]-urea], the GI50 in test [1] is 0.001 to 0.01 µM; in test [2] it was 0.001 to 0.01 µM; in the test with RS4; 11 (FLT3 wild type) it was more than 1 µM; in test [3] it was more than 1 µM; in test [4], more than 1 µM; in the test with U937 (FLT3 wild-type) it was more than 1 µM. Besides, the GI50 (in [5]; in test [6]; with HL-60 (FLT3 wild type); in [7]) was more than 1 µM in each case.
Take `CCOc1ccc2c(c1)ncn2-c1ccc(NC(=O)Nc2cc(C(C)(C)C)n[nH]2)cc1` [Compound 72, 1-(5-tert-butyl-2H-pyrazol-3-yl)-3-[4-(5-ethoxyl-benzimidazol-1-yl)-phenyl]-urea]: the GI50 in test [1] was 0.0001 to 0.001 µM; in test [2], 0.0001 to 0.001 µM; in the test with RS4; 11 (FLT3 wild type), more than 1 µM; in [3], more than 1 µM; in [4], more than 1 µM; in the test with U937 (FLT3 wild-type) it was more than 1 µM. Besides, the GI50 (in [5]; in [6]; with HL-60 (FLT3 wild type); in test [7]) was more than 1 µM in each case.
With `CCCCCCOc1ccc2c(c1)ncn2-c1ccc(NC(=O)Nc2cc(C(C)(C)C)n[nH]2)cc1` [Compound 73, 1-(5-tert-butyl-2H-pyrazol-3-yl)-3-[4-(5-hexyloxyl-benzimidazol-1-yl)-phenyl]-urea], the GI50 in test [1] was 0.0001 to 0.001 µM; in test [2] it was 0.0001 to 0.001 µM; in the test on RS4; 11 (FLT3 wild type), more than 1 µM; in test [3] it was more than 1 µM; in [4], more than 1 µM; with U937 (FLT3 wild-type), more than 1 µM. The GI50 (in test [5]; in test [6]; in the test with HL-60 (FLT3 wild type); in test [7]) was more than 1 µM in each case.
As to `CC(C)Oc1ccc2c(c1)ncn2-c1ccc(NC(=O)Nc2cc(C(C)(C)C)n[nH]2)cc1` [Compound 74, 1-(5-tert-butyl-2H-pyrazol-3-yl)-3-[4-(5-isopropoxy-benzimidazol-1-yl)-phenyl]-urea], the GI50 was 0.0001 to 0.001 µM in test [1]; 0.0001 to 0.001 µM in test [2]; more than 1 µM with RS4; 11 (FLT3 wild type); more than 1 µM in test [3]; more than 1 µM in [4]; more than 1 µM with U937 (FLT3 wild-type). The GI50 (in [5]; in [6]; in the test with HL-60 (FLT3 wild type); in [7]) was more than 1 µM each time.
For `CCC(C)Oc1ccc2c(c1)ncn2-c1ccc(NC(=O)Nc2cc(C(C)(C)C)n[nH]2)cc1` (centres unmarked) [Compound 75, 1-[4-(5-sec-butoxy-benzimidazol-1-yl)-phenyl]-3-(5-tert-butyl-2H-pyrazol-3-yl)-urea], the GI50 in [1] is 0.0001 to 0.001 µM; in test [2], 0.0001 to 0.001 µM; in the test with RS4; 11 (FLT3 wild type), more than 1 µM; in test [3], more than 1 µM; in test [4], more than 1 µM; with U937 (FLT3 wild-type), more than 1 µM. Besides, the GI50 (in [5]; in [6]; in the test with HL-60 (FLT3 wild type); in [7]) was more than 1 µM throughout.
Regarding `CC(C)COc1ccc2c(c1)ncn2-c1ccc(NC(=O)Nc2cc(C(C)(C)C)n[nH]2)cc1` [Compound 76, 1-(5-tert-butyl-2H-pyrazol-3-yl)-3-[4-(5-isobutoxy-benzimidazol-1-yl)-phenyl]-urea], the GI50 in test [1] was 0.001 to 0.01 µM; in test [2], 0.001 to 0.01 µM; with RS4; 11 (FLT3 wild type), more than 1 µM; in test [3], more than 1 µM; in [4], more than 1 µM; in the test on U937 (FLT3 wild-type), more than 1 µM. Further, the GI50 (in test [5]; in test [6]; in the test with HL-60 (FLT3 wild type); in test [7]) was more than 1 µM each time.
For the molecule `CCOCCOc1ccc2c(c1)ncn2-c1ccc(NC(=O)Nc2cc(C(C)(C)C)n[nH]2)cc1` [Compound 78, 1-(5-tert-butyl-2H-pyrazol-3-yl)-3-{4-[5-(2-ethoxyl-ethoxyl)-benzimidazol-1-yl]-phenyl}-urea], the GI50 is 0.0001 to 0.001 µM in [1]; 0.0001 to 0.001 µM in test [2]; more than 1 µM with RS4; 11 (FLT3 wild type); more than 1 µM in [3]; more than 1 µM in test [4]; more than 1 µM in the test on U937 (FLT3 wild-type). The GI50 (in [5]; in test [6]; with HL-60 (FLT3 wild type); in test [7]) was more than 1 µM each time.
In the case of `COCC(O)COc1ccc2c(c1)ncn2-c1ccc(NC(=O)Nc2cc(C(C)(C)C)n[nH]2)cc1` (centres unmarked) [Compound 80, 1-(5-tert-butyl-2H-pyrazol-3-yl)-3-{4-[5-(2-hydroxy-3-methoxyl-propoxyl)-benzimidazol-1-yl]-phenyl}-urea], the GI50 in test [1] is 0.0001 to 0.001 µM; in [2], 0.0001 to 0.001 µM; with RS4; 11 (FLT3 wild type) it was more than 1 µM; in test [3], more than 1 µM; in test [4], more than 1 µM; with U937 (FLT3 wild-type) it was more than 1 µM. The GI50 (in test [5]; in test [6]; with HL-60 (FLT3 wild type); in [7]) was more than 1 µM each time.
In the case of `CCCCN(CCCC)CCCOc1ccc2c(c1)ncn2-c1ccc(NC(=O)Nc2cc(C(C)(C)C)n[nH]2)cc1` [Compound 82, 1-(5-tert-butyl-2H-pyrazol-3-yl)-3-{4-[5-(3-dibutylaminopropoxy)-benzimidazol-1-yl]-phenyl}-urea], the GI50 in test [1] is 0.0001 to 0.001 µM; in test [2], 0.0001 to 0.001 µM; in the test on RS4; 11 (FLT3 wild type), more than 1 µM; in test [3] it was more than 1 µM; in [4], 0.1 to 1 µM; in the test on U937 (FLT3 wild-type), 0.1 to 1 µM. The GI50 is more than 1 µM in test [5], more than 1 µM in [6], 0.1 to 1 µM in the test with HL-60 (FLT3 wild type) and more than 1 µM in test [7].
In the case of `CC(C)(C)c1cc(NC(=O)Nc2ccc(-n3cnc4cc(OCC#N)ccc43)cc2)[nH]n1` [Compound 83, 1-(5-tert-butyl-2H-pyrazol-3-yl)-3-[4-(5-cyanomethoxy-benzimidazol-1-yl)-phenyl]-urea], the GI50 in test [1] was 0.0001 to 0.001 µM; in test [2], 0.0001 to 0.001 µM; with RS4; 11 (FLT3 wild type), more than 1 µM; in test [3] it was more than 1 µM; in test [4] it was more than 1 µM; with U937 (FLT3 wild-type) it was more than 1 µM. The GI50 (in test [5]; in test [6]; in the test on HL-60 (FLT3 wild type); in test [7]) was more than 1 µM each time.
